Among the data in patent US20250228239A1, “MOLECULES HAVING PESTICIDAL UTILITY, AND INTERMEDIATES, COMPOSITIONS, AND PROCESSES, RELATED THERETO” (priority 2024, published 2025) are pest or weed control and mortality values, retold here.

A word on the mortality: it is the share of the test organisms that died.

The subject of test [1] is Beet Armyworm (Spodoptera exigua, LAPHEG). The test can be described thus: Bioassays on Beet Armyworm (BAW), 128-well diet tray assay. Type of test: in vivo. Particulars: Spodoptera exigua; for mortality at 50 µg/cm2: 168 h, second instar larvae, 50 μg/cm^2 of test molecule on artificial diet, 25° C., five to seven days, average of eight wells, read-out: BAW % Control (or Mortality) rating. A digest of the protocol:
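Second-instar larvae, one to five per well, were placed on artificial diet surface-treated with 50 μg/cm^2 compound in 90:10 acetone-water, eight wells per treatment. Trays were held 5–7 days at 25 °C, 14:10 light-dark. Percent mortality per well was averaged over eight wells.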

In test [2] the test system is Cabbage Looper (Trichoplusia ni, TRIPNI). Nature of the test: Bioassays on Cabbage Looper (CL), 128-well diet tray assay. Type of test: in vivo. The following applies: Trichoplusia ni; for mortality at 50 µg/cm2: 168 h, second instar larvae, 50 μg/cm^2 of test molecule on artificial diet, 25° C., five to seven days, average of eight wells, read-out: CL % Control (or Mortality) rating. A digest of the protocol:
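One to five second-instar larvae per well on artificial diet surface-treated with 50 μg/cm^2 test molecule (applied in 90:10 acetone-water, dried). Held 5–7 days at 25° C, 14:10 light-dark; percent mortality recorded per well and averaged over eight wells.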

Where [3] appears, read: Beet Armyworm, Table ABC / ABC-DP rating, read-out: BAW rating.
[4] abbreviates: Cabbage Looper, Table ABC / ABC-DP rating, read-out: CL rating.
[5] abbreviates: Beet Armyworm, rating class, read-out: BAW.
Where [6] appears, read: Cabbage Looper, rating class, read-out: CL.
The mark [7] stands for this setting: Table ABC: Biological Results, species BAW, read-out: BAW.
Where [8] appears, read: Table ABC: Biological Results, species CL, read-out: CL.

Read-outs that look alike come from different tables or passages of the source.

In the case of `O=C(CCC(F)(F)C(F)(F)F)Nc1c(F)ccc(NC(=O)c2cc(NC(=O)[C@H]3[C@H](c4ccc(Cl)c(Cl)c4)C3(Cl)Cl)ccc2Cl)c1F` [F1861, 2-Chloro-5-((1R,3R)-2,2-dichloro-3-(3,4-dichlorophenyl)cyclopropane-1-carboxamido)-N-(2,4-difluoro-3-(4,4,5,5,5-pentafluoropentanamido)phenyl) benzamide], the pest or weed control at 50 µg/cm2 in test [1] (setting [3]) and in test [2] (setting [4]) was 50 to 100% in each case.
Regarding `CC(C)NC(=O)NNC(=O)c1cc(NC(=O)[C@H]2[C@H](c3cc(Cl)cc(Cl)c3)C2(Cl)Cl)ccc1Cl` (relative stereo) [F2536, trans-2-(2-Chloro-5-(2,2-dichloro-3-(3,5-dichlorophenyl)cyclopropane-1-carboxamido)benzoyl)-N-isopropylhydrazine-1-carboxamide], the pest or weed control at 50 µg/cm2 in test [1] (setting [3]) and in test [2] (setting [4]) was 50 to 100% in each case.
`CC(=O)Nc1ccc(F)c(NC(=O)c2cc(NC(=O)[C@H]3[C@H](c4cc(Cl)c(Cl)c(Cl)c4)C3(Cl)Cl)cc(F)c2F)c1F` [F1590, N-(3-Acetamido-2,6-difluorophenyl)-5-((1R,3R)-2,2-dichloro-3-(3,4,5-trichlorophenyl)cyclopropane-1-carboxamido)-2,3-difluorobenzamide]: the pest or weed control at 50 µg/cm2 in test [1] (setting [5]) and in test [2] (setting [6]) was 50 to 100% in each case.
As to `Cc1cc(NC(=O)[C@H]2[C@H](c3ccc(F)c(C(F)(F)F)c3)C2(Cl)Cl)cc(C(=O)Nc2ccc(F)c(NC(=O)C(F)F)c2F)c1Cl` [F1494, 2-Chloro-5-((1R,3R)-2,2-dichloro-3-(4-fluoro-3-(trifluoromethyl)phenyl)cyclopropane-1-carboxamido)-N-(3-(2,2-difluoroacetamido)-2,4-difluorophenyl)-3-methylbenzamide], the pest or weed control at 50 µg/cm2 in test [1] (setting [5]) and in test [2] (setting [6]) was 50 to 100% throughout.
Regarding `O=C(Nc1c(F)ccc(NC(=O)C(F)(F)F)c1F)c1cc(NC(=O)[C@H]2[C@H](c3ccc(Cl)c(Cl)c3)C2(Cl)Cl)cc(F)c1F` [F1578, 5-((1R,3R)-2,2-Dichloro-3-(3,4-dichlorophenyl)cyclopropane-1-carboxamido)-N-(2,6-difluoro-3-(2,2,2-trifluoroacetamido)phenyl)-2,3-difluorobenzamide], the pest or weed control at 50 µg/cm2 in test [1] (setting [5]) and in test [2] (setting [6]) was 50 to 100% in each case.
With `O=C(Nc1c(F)ccc(NC(=O)C(F)(F)F)c1F)c1cc(NC(=O)[C@H]2[C@H](c3ccc(Cl)c(Cl)c3)C2(Cl)Cl)cc(F)c1Cl` [F1344, 2-Chloro-5-((1R,3R)-2,2-dichloro-3-(3,4-dichlorophenyl)cyclopropane-1-carboxamido)-N-(2,6-difluoro-3-(2,2,2-trifluoroacetamido)phenyl)-3-fluorobenzamide], the pest or weed control at 50 µg/cm2 in test [1] (setting [7]) and in test [2] (setting [8]) was 50 to 100% each time.
As for `Nc1c(F)ccc(NC(=O)c2cc(NC(=O)[C@H]3[C@@H](c4cc(F)c(Cl)c(C(F)(F)F)c4)C3(Cl)Cl)ccc2Cl)c1F` (relative stereo) [F1168, cis-N-(3-Amino-2,4-difluorophenyl)-2-chloro-5-(2,2-dichloro-3-(4-chloro-3-fluoro-5-(trifluoromethyl)phenyl)cyclopropane-1-carboxamido)benzamide], the pest or weed control at 50 µg/cm2 in test [1] (setting [7]) and in test [2] (setting [8]) was 50 to 100% throughout.
Take `CC(C)CC(=O)Nc1c(F)ccc(NC(=O)c2cc(NC(=O)[C@H]3[C@H](c4ccc(F)c(C(F)(F)F)c4)C3(Cl)Cl)ccc2Cl)c1F` [F1845, 2-Chloro-5-((1R,3R)-2,2-dichloro-3-(4-fluoro-3-(trifluoromethyl)phenyl)cyclopropane-1-carboxamido)-N-(2,4-difluoro-3-(3-methylbutanamido)phenyl)benzamide]: the pest or weed control at 50 µg/cm2 in test [1] (setting [3]) and in test [2] (setting [4]) was 50 to 100% in each case.
Consider `CC(=O)Nc1ccc(NC(=O)c2c(F)ccc(NC(=O)[C@H]3[C@H](c4ccc(F)c(Cl)c4)C3(Cl)Cl)c2F)cc1` (relative stereo) [F1101, trans-N-(4-Acetamidophenyl)-3-(2,2-dichloro-3-(3-chloro-4-fluorophenyl)cyclopropane-1-carboxamido)-2,6-difluorobenzamide], for which the pest or weed control at 50 µg/cm2 in test [1] (setting [7]) and in test [2] (setting [8]) was 50 to 100% each time.
`Cc1ccc(NNC(=O)c2cc(NC(=O)[C@H]3[C@H](c4cc(Cl)cc(Cl)c4)C3(Cl)Cl)ccc2Cl)cc1` (relative stereo) [F2575, trans-2,2-Dichloro-N-(4-chloro-3-(2-(p-tolyl)hydrazine-1-carbonyl)phenyl)-3-(3,5-dichlorophenyl)cyclopropane-1-carboxamide]: the mortality at 50 µg/cm2 in test [1] and in test [2] was 50 to 100% throughout. In addition, the pest or weed control at 50 µg/cm2 in test [1] (setting [3]) and in test [2] (setting [4]) was 50 to 100% in each case.
`O=C(Nc1cc(NC(=O)C(F)F)c(F)cc1F)c1cc(NC(=O)[C@H]2[C@H](c3cc(Cl)c(Cl)c(Cl)c3)C2(Cl)Cl)ccc1Cl` [F1518, 2-Chloro-5-((1R,3R)-2,2-dichloro-3-(3,4,5-trichlorophenyl)cyclopropane-1-carboxamido)-N-(5-(2,2-difluoroacetamido)-2,4-difluorophenyl)benzamide]: the pest or weed control at 50 µg/cm2 in test [1] (setting [5]) and in test [2] (setting [6]) was 50 to 100% throughout.
For `O=C(CCBr)Nc1c(F)ccc(NC(=O)c2cc(NC(=O)[C@H]3[C@H](c4ccc(F)c(C(F)(F)F)c4)C3(Cl)Cl)ccc2Cl)c1F` [F1851, N-(3-(3-Bromopropanamido)-2,4-difluorophenyl)-2-chloro-5-((1R,3R)-2,2-dichloro-3-(4-fluoro-3-(trifluoromethyl)phenyl)cyclopropane-1-carboxamido)benzamide], the pest or weed control at 50 µg/cm2 in test [1] (setting [3]) and in test [2] (setting [4]) was 50 to 100% throughout.
In the case of `O=C(NNC1CCC(F)(F)CC1)c1cc(NC(=O)[C@H]2[C@H](c3cc(Cl)cc(Cl)c3)C2(Cl)Cl)ccc1Cl` (relative stereo) [F2569, trans-2,2-dichloro-N-(4-chloro-3-(2-(4,4-difluorocyclohexyl)hydrazine-1-carbonyl)phenyl)-3-(3,5-dichlorophenyl)cyclopropane-1-carboxamide], the mortality at 50 µg/cm2 in test [1] and in test [2] was 50 to 100% throughout. Besides, the pest or weed control at 50 µg/cm2 in test [1] (setting [3]) and in test [2] (setting [4]) was 50 to 100% in each case.
In the case of `Cc1cc(NC(=O)[C@H]2[C@H](c3cc(Cl)c(Cl)c(Cl)c3)C2(Cl)Cl)cc(C(=O)Nc2c(F)ccc(NC(=O)C(F)F)c2F)c1Cl` [F1431, 2-Chloro-5-((1R,3R)-2,2-dichloro-3-(3,4,5-trichlorophenyl)cyclopropane-1-carboxamido)-N-(3-(2,2-difluoroacetamido)-2,6-difluorophenyl)-3-methylbenzamide], the pest or weed control at 50 µg/cm2 in test [1] (setting [5]) and in test [2] (setting [6]) was 50 to 100% each time.
For the compound `CC(C)(C)OC(=O)Nc1c(F)ccc(NC(=O)c2cc(NC(=O)[C@H]3[C@H](c4cc(F)cc(C(F)(F)F)c4)C3(Cl)Cl)ccc2Cl)c1F` (relative stereo) [F1092, trans-tert-Butyl-(3-(2-chloro-5-(2,2-dichloro-3-(3-fluoro-5-(trifluoromethyl)phenyl)cyclopropane-1-carboxamido)benzamido)-2,6-difluorophenyl)carbamate], the pest or weed control at 50 µg/cm2 in test [1] (setting [7]) and in test [2] (setting [8]) was 50 to 100% throughout.
As for `Cc1cc([C@H]2[C@H](C(=O)Nc3ccc(Cl)c(C(=O)Nc4ccc(F)c(N)c4F)c3)C2(Cl)Cl)cc(C(F)(F)F)c1F` (relative stereo) [F1068, trans-N-(3-Amino-2,4-difluorophenyl)-2-chloro-5-(2,2-dichloro-3-(4-fluoro-3-methyl-5-(trifluoromethyl)phenyl)cyclopropane-1-carboxamido)benzamide], the pest or weed control at 50 µg/cm2 in test [1] (setting [7]) and in test [2] (setting [8]) was 50 to 100% in each case.
Regarding `O=C(NN=Cc1nccs1)c1cc(NC(=O)[C@H]2[C@H](c3cc(Cl)cc(Cl)c3)C2(Cl)Cl)ccc1Cl` (relative stereo) [F3006, trans-2,2-Dichloro-N-(4-chloro-3-(2-(thiazol-2-ylmethylene)hydrazine-1-carbonyl)phenyl)-3-(3,5-dichlorophenyl)cyclopropane-1-carboxamide], the mortality at 50 µg/cm2 in test [1] and in test [2] was 50 to 100% each time. For the same compound, the pest or weed control at 50 µg/cm2 in test [1] (setting [3]) and in test [2] (setting [4]) was 50 to 100% in each case.
Turning to `O=C(Nc1ccc(F)c(NC(=O)C(F)(F)F)c1F)c1cc(NC(=O)[C@H]2[C@H](c3cc(Cl)c(F)c(Cl)c3)C2(Cl)Cl)ccc1Cl` (relative stereo) [F1332, trans-2-Chloro-5-(2,2-dichloro-3-(3,5-dichloro-4-fluorophenyl)cyclopropane-1-carboxamido)-N-(2,4-difluoro-3-(2,2,2-trifluoroacetamido)phenyl)benzamide], the pest or weed control at 50 µg/cm2 in test [1] (setting [7]) and in test [2] (setting [8]) was 50 to 100% each time.
On to `CC(=O)Nc1c(F)ccc(NC(=O)c2cc(NC(=O)[C@H]3[C@H](c4ccc(Cl)c(Cl)c4)C3(Cl)Cl)ccc2F)c1F` [F1493, N-(3-Acetamido-2,4-difluorophenyl)-5-((1R,3R)-2,2-dichloro-3-(3,4-dichlorophenyl)cyclopropane-1-carboxamido)-2-fluorobenzamide], for which the pest or weed control at 50 µg/cm2 in test [1] (setting [5]) and in test [2] (setting [6]) was 50 to 100% throughout.
